Measurements as given in patent US20240150340A1, “CDK Inhibitors And Their Use As Pharmaceuticals” (Prelude Therapeutics Incorporated, priority 2022, published 2024).

Assays:
[1] = target: T1, CDK2/Cyclin E2 (Homo sapiens, UniProt P24941); test: CDK2/CyclinE2 Enzymatic Activity Assay (TR-FRET); format: biochemical; conditions: ATP 1 mM final, read-out: CDK2_E1 IC50
T1 construct: Recombinant protein complex CDK2/Cyclin E2, expressed from insect cell, was purchased from ProQinase
Protocol: CDK2/CyclinE2 Enzymatic Activity Assay
The inhibitory activity of compounds was evaluated in vitro using TR-FRET assay with white 384-well low volume microplate (Greiner Bio-One). CDK2/Cyclin E2 catalyzed phosphorylation of peptide in the presence and absence of compounds was measured and used in IC50 determination. Recombinant protein complex CDK2/Cyclin E2, expressed from insect cell, was purchased from ProQinase. Testing compounds were dissolved in DMSO at 1 mM and tested in 9-dose IC50 mode. The reaction mixture was prepared by mixing CDK2/CyclinE2 (1 nM final), ULight-4E-BP1 (50 nM final, Perkinelmer, TRF0128-D), and ATP (1 mM final) in assay buffer (20 mM of HEPES pH 7.4, 1 mM of EGTA, 0.05% BSA, 0.005% Tween 20, and 1 mM TCEP). The compound of interest in DMSO was added to each well in 3-fold serial dilution by dispenser (TECAN D300E) to make a 9.9 μL of reaction mixture. After 20 minutes preincubation at room temperature, 0.1 μL MgCl2 (10 mM final) was added to initiate the reaction. Following a 45 minute incubation at 37° C., the reaction was stopped by addition of 2 μL of quenching buffer consisting of Lance detection buffer (Perkinelmer CR97-100C), LANCE Ultra Europium-anti-P-4E-BP1 (Perkinelmer, TRF0216-D), EDTA, and incubated at room temperature for additional 60 minutes in the dark. The reaction signal was measured by Envision multimode plate reader (PerkinElmer, 2102-0010). IC50 values were determined by fitting the data to the standard 4 parameters with Hill Slope using GraphPad Prism software.

[2] = target: T2, CDK4/Cyclin D1 (Homo sapiens, UniProt P11802); test: CDK4/CyclinD1 Enzymatic Activity Assay (TR-FRET); format: biochemical; conditions: ATP 2 mM final, read-out: CDK4_D1 IC50
T2 construct: purchased ProQinase; host or cells: insect cell
T2 sequence (P11802 whole entry): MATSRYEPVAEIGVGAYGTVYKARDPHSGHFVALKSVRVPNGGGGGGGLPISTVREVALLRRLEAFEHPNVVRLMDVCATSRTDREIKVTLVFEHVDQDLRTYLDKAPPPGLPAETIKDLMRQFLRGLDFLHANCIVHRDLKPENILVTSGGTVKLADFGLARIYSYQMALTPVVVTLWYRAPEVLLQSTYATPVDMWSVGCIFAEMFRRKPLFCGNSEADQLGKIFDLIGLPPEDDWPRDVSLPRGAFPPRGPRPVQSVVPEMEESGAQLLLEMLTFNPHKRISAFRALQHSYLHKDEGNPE
T2 sequence (P24385 whole entry partner): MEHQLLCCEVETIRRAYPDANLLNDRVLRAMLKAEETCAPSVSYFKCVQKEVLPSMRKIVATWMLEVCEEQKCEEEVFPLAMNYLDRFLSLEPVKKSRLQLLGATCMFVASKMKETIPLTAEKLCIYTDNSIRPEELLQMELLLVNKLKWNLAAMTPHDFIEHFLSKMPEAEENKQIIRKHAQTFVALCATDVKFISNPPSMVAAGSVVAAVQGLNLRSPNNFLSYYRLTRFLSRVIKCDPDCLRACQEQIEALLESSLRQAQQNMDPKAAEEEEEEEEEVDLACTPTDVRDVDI
Protocol: CDK4/CyclinD1 Enzymatic Activity Assay
The inhibitory activity of compounds was evaluated in vitro using TR-FRET assay with white 384-well low volume microplate (Greiner Bio-One). CDK4/Cyclin D1 catalyzed phosphorylation of peptide in the presence and absence of compounds was measured and used in IC50 determination. Recombinant protein complex CDK4/Cyclin D1, expressed from insect cell, was purchased from ProQinase. Testing compounds were dissolved in DMSO at 1 mM and tested in 9-dose IC50 mode. The reaction mixture was prepared by mixing CDK4/CyclinD1 (1 nM final), ULight-4E-BP1 (100 nM final, Perkinelmer, TRF0128-D), and ATP (2 mM final) in assay buffer (20 mM of HEPES pH 7.4, 1 mM of EGTA, 0.05% BSA, 0.005% Tween 20, and 1 mM TCEP). The compound of interest in DMSO was added to each well in 3-fold serial dilution by the dispenser (TECAN D300E) to make a 9.9 μL of reaction mixture. After 20 minutes preincubation at room temperature, 0.1 μL MgCl2 (10 mM final) was added to initiate the reaction. Following a 45-minute incubation at 37° C., the reaction was stopped by addition of 2 μL of quenching buffer consisting of Lance detection buffer (Perkinelmer CR97-100C), LANCE Ultra Europium-anti-P-4E-BP1 (Perkinelmer, TRF0216-D), EDTA, and incubated at room temperature for additional 60 minutes in dark. The reaction signal was measured by Envision multimode plate reader (PerkinElmer, 2102-0010). IC50 values were determined by fitting the data to the standard 4 parameters with Hill Slope using GraphPad Prism software.

[3] = test system: OVCAR3 p-RB; test: pRB ICW Assay in OVCAR3 Cells; format: cell-based; conditions: Homo sapiens, OVCAR-3, incubated with compound for 2 hours
Protocol: pRB ICW Assay in OVCAR3 Cells
OVCAR3 cells were maintained in RPMI (Corning, Catalog #: 10-040-CV) supplemented with 10% v/v FBS (Gibco, Catalog #: 26140-079), 1% v/v Penicillin Streptomycin (Gibco, Catalog #15140-122.) OVCAR3 cells grown at log phase were trypsinized, counted, and resuspended in fresh medium to reach a final density of 6.7e4 cells/mL and 75 μL of culture were dispensed into a 384-well plate (Falcon, cat #353962) using a Multidrop Combi dispenser (Thermo Scientific). The next day, compounds were dispensed as a 9-point, ½ log serial dilution using a Tecan digital dispenser (D300e), and cells were incubated with compound for 2 hours in a humidified incubator at 37° C. A reference compound at a final concentration of 10 μM was used as a control for maximum inhibition. Each compound was tested in duplicate for each experiment. At the end of the incubation, […] (Electron Microscopy, cat #15710) was slowly added to each well and the plate was incubated at room temperature (RT) for 30 minutes to fix cells. Cells were then permeabilized by incubating with 50 μL/well of wash buffer (1×PBS with 0.1% Triton X-100) 5×5 minutes, followed by 1 hour blocking with 30 μL/well of Odyssey blocking buffer (Li-COR, cat #927-40000), at RT. Anti-phosphor RB antibody (Cell signaling 8516S) was diluted 1:1000 in Odyssey blocking buffer and 20 μL was added to all wells and incubated overnight in 4° C. with gently rocking. The next day, cells were washed 5×5 min with 50 μL/well of wash buffer, followed with 1 hour incubation with secondary antibody and DRAQ5 diluted in Odyssey blocking buffer (1:500 dilution for secondary antibody and 1:2000 dilution for DRAQ5), 5×5 min washes, and one last wash with water. Plates were dried in 37° C. oven for 5 minutes and scanned using Li-COR Odyssey CLx imaging system to acquire intensities at 700 and 800 nm channels.

Cc1sc(-c2nc(NC3CCN(S(=O)(=O)c4cn(C)cn4)CC3)ncc2C(F)(F)F)cc1C#N [Example 1, 2-Methyl-5-[2-[[1-(1-methylimidazol-4-yl)sulfonylpiperidin-4-yl]amino]-5-(trifluoromethyl)pyrimidin-4-yl]thiophene-3-carbonitrile]
IC50 [1]: ≤ 0.1 µM | IC50 [2]: ≤ 0.1 µM | IC50 [3]: ≤ 0.1 µM

Cc1cnc(-c2nc(NC3CCN(S(=O)(=O)c4cnn(C)c4)CC3)ncc2C(F)(F)F)s1 [Example 2, N-(1-((1-methyl-1H-pyrazol-4-yl)sulfonyl)piperidin-4-yl)-4-(5-methylthiazol-2-yl)-5-(trifluoromethyl)pyrimidin-2-amine]
IC50 [1]: ≤ 0.1 µM | IC50 [2]: ≤ 0.1 µM | IC50 [3]: ≤ 0.1 µM

C[C@@H]1CN(S(C)(=O)=O)CC[C@@H]1Nc1ncc(C(F)(F)F)c(-c2ncc(C(O)C(F)(F)F)s2)n1 (stereo partly drawn) [Example 140, 2,2,2-trifluoro-1-(2-(2-(((3R,4S)-3-methyl-1-(methylsulfonyl)piperidin-4-yl)amino)-5-(trifluoromethyl)pyrimidin-4-yl)thiazol-5-yl)ethan-1-ol]
IC50 [1]: ≤ 0.1 µM | IC50 [3]: > 0.5 µM

C[C@@H]1CN(S(=O)(=O)c2cnn(C)c2)CC[C@@H]1Nc1ncc(C(F)(F)F)c(-c2ncc(C(O)C(F)(F)F)s2)n1 (stereo partly drawn) [Example 141, 2,2,2-trifluoro-1-(2-(2-(((3R,4S)-3-methyl-1-((1-methyl-1H-pyrazol-4-yl)sulfonyl)piperidin-4-yl)amino)-5-(trifluoromethyl)pyrimidin-4-yl)thiazol-5-yl)ethan-1-ol]
IC50 [1]: ≤ 0.1 µM | IC50 [3]: 0.1 to 0.5 µM

C[C@@H]1CN(S(=O)(=O)c2cnn(C)c2)CC[C@@H]1Nc1ncc(C(F)(F)F)c(-c2ncc(C(C)(O)C(F)F)s2)n1 (stereo partly drawn) [Example 143, 1,1-difluoro-2-(2-(2-(((3R,4S)-3-methyl-1-((1-methyl-1H-pyrazol-4-yl)sulfonyl)piperidin-4-yl)amino)-5-(trifluoromethyl)pyrimidin-4-yl)thiazol-5-yl)propan-2-ol]
IC50 [1]: ≤ 0.1 µM | IC50 [3]: ≤ 0.1 µM

C[C@@H]1CN(S(=O)(=O)c2cnn(C)c2)CC[C@@H]1Nc1ncc(C(F)(F)F)c(-c2ncc(C(O)CF)s2)n1 (stereo partly drawn) [Example 144, 2-fluoro-1-(2-(2-(((3R,4S)-3-methyl-1-((1-methyl-1H-pyrazol-4-yl)sulfonyl)piperidin-4-yl)amino)-5-(trifluoromethyl)pyrimidin-4-yl)thiazol-5-yl)ethan-1-ol]
IC50 [1]: ≤ 0.1 µM | IC50 [3]: 0.1 to 0.5 µM

C[C@@H]1CN(S(C)(=O)=O)CC[C@@H]1Nc1ncc(C(F)(F)F)c(-c2ncc(C(O)CF)s2)n1 (stereo partly drawn) [Example 145, 2-fluoro-1-(2-(2-(((3R,4S)-3-methyl-1-(methylsulfonyl)piperidin-4-yl)amino)-5-(trifluoromethyl)pyrimidin-4-yl)thiazol-5-yl)ethan-1-ol]
IC50 [1]: ≤ 0.1 µM | IC50 [3]: > 0.5 µM

C[C@@H]1CN(S(C)(=O)=O)CC[C@@H]1Nc1ncc(C(F)(F)F)c(-c2ncc(C(O)C(F)F)s2)n1 (stereo partly drawn) [Example 146, 2,2-difluoro-1-(2-(2-(((3R,4S)-3-methyl-1-(methylsulfonyl)piperidin-4-yl)amino)-5-(trifluoromethyl)pyrimidin-4-yl)thiazol-5-yl)ethan-1-ol]
IC50 [1]: ≤ 0.1 µM | IC50 [3]: 0.1 to 0.5 µM

C[C@@H]1CN(S(=O)(=O)N2CCOCC2)CC[C@@H]1Nc1ncc(C(F)(F)F)c(-c2ncc(CC(C)(C)O)s2)n1 [Example 147, 2-methyl-1-(2-(2-(((3R,4S)-3-methyl-1-(morpholinosulfonyl)piperidin-4-yl)amino)-5-(trifluoromethyl)pyrimidin-4-yl)thiazol-5-yl)propan-2-ol]
IC50 [1]: ≤ 0.1 µM | IC50 [3]: > 0.5 µM

C[C@@H]1CN(S(=O)(=O)N2CCN(C)CC2)CC[C@@H]1Nc1ncc(C(F)(F)F)c(-c2ncc(CC(C)(C)O)s2)n1 [Example 148, 2-methyl-1-(2-(2-(((3R,4S)-3-methyl-1-((4-methylpiperazin-1-yl)sulfonyl)piperidin-4-yl)amino)-5-(trifluoromethyl)pyrimidin-4-yl)thiazol-5-yl)propan-2-ol]
IC50 [1]: ≤ 0.1 µM | IC50 [3]: > 0.5 µM

C[C@@H]1CN(S(=O)(=O)N(C)C)CC[C@@H]1Nc1ncc(C(F)(F)F)c(-c2ncc(CC(C)(C)O)s2)n1 [Example 149, (3R,4S)-4-((4-(5-(2-hydroxy-2-methylpropyl)thiazol-2-yl)-5-(trifluoromethyl)pyrimidin-2-yl)amino)-N,N,3-trimethylpiperidine-1-sulfonamide]
IC50 [1]: ≤ 0.1 µM | IC50 [3]: > 0.5 µM

C[C@@H]1CN(S(=O)(=O)c2cnn(C)c2)CC[C@@H]1Nc1ncc(C(F)(F)F)c(-c2ncc(C3(O)CC3)s2)n1 [Example 150, 1-(2-(2-(((3R,4S)-3-methyl-1-((1-methyl-1H-pyrazol-4-yl)sulfonyl)piperidin-4-yl)amino)-5-(trifluoromethyl)pyrimidin-4-yl)thiazol-5-yl)cyclopropan-1-ol]
IC50 [1]: ≤ 0.1 µM | IC50 [3]: 0.1 to 0.5 µM

C[C@@H]1CN(S(C)(=O)=O)CC[C@@H]1Nc1ncc(C(F)(F)F)c(-c2ncc(C3(O)CC3)s2)n1 [Example 151, 1-(2-(2-(((3R,4S)-3-methyl-1-(methylsulfonyl)piperidin-4-yl)amino)-5-(trifluoromethyl)pyrimidin-4-yl)thiazol-5-yl)cyclopropan-1-ol]
IC50 [1]: ≤ 0.1 µM | IC50 [3]: > 0.5 µM

CC(C)(O)Cc1cnc(-c2nc(N[C@H]3CCN(S(C)(=O)=O)C[C@H]3F)ncc2Cl)s1 [Example 152, 1-(2-(5-chloro-2-(((3R,4S)-3-fluoro-1-(methylsulfonyl)piperidin-4-yl)amino)pyrimidin-4-yl)thiazol-5-yl)-2-methylpropan-2-ol]
IC50 [1]: ≤ 0.1 µM | IC50 [3]: 0.1 to 0.5 µM

CC(C)(O)Cc1cnc(-c2nc(N[C@H]3CCN(S(C)(=O)=O)C[C@H]3F)ncc2C#N)s1 [Example 153, 2-(((3R,4S)-3-fluoro-1-(methylsulfonyl)piperidin-4-yl)amino)-4-(5-(2-hydroxy-2-methylpropyl)thiazol-2-yl)pyrimidine-5-carbonitrile]
IC50 [1]: ≤ 0.1 µM | IC50 [3]: > 0.5 µM

CC(C)(O)Cc1cnc(-c2nc(N[C@H]3CCN(S(C)(=O)=O)C[C@H]3F)ncc2C(F)F)s1 [Example 154, 1-(2-(5-(difluoromethyl)-2-(((3R,4S)-3-fluoro-1-(methylsulfonyl)piperidin-4-yl)amino)pyrimidin-4-yl)thiazol-5-yl)-2-methylpropan-2-ol]
IC50 [1]: ≤ 0.1 µM | IC50 [3]: > 0.5 µM
